According to US10167479B2, “Agrobacterium strains for plant transformation” (priority 2009, dated 2019):

Key:
[1] = tested on: Jatropha curcas somatic embryos / somatic embryogenic calli; details: TE7, AGL1 pST2eGFP
Procedure: Embryogenic cell lines, for example, JS4 cell line, which was derived from a zygotic embryo of an Indonesian Jatropha curcas collection, were subcultured every week by transferring about 3 g of the cell mass to 20 ml J20P medium. 3-5 days after subculture, the embryogenic calli cell mass was collected.
Co-culture plates were made by pouring about 30 ml JIM2H solid medium to each 90 mm Petri dish. Alternatively, 3-4 sheets of cellulose filter paper can be soaked with JIM2H liquid medium before placing into a 90 mm Petri dish. One sheet of 82 mm Hybond N membrane was over-laid to the medium-soaked cellulose filter paper or solid JIM2H medium. About 0.75 g embryogenic calli was mixed with 200 ul Agrobacterium cells on the membrane. After one hour incubation at room temperature, excess liquid medium containing the Agrobacterium cells was removed. The plates were capped, sealed with 3M tape and incubated at 24° C. with dim light for 2-3 days.
Fresh colonies of AGL2 or AGL3 harboring pCambia1305.1 were inoculated into 30 ml LB medium that had been supplemented with 25 mg/l rifampicin and 50 mg/l kanamycin. Cells were cultured at 28° C., 200-230 RPM until OD600 reached 0.8-2.0. […]
In about 3 weeks, the embryos were transferred to G35-2 medium with 10 mg/l hygromycin. […] Rooted plantlets were ready for planting in soil in 2-3 weeks. […]

[2] = tested on: Soybean embryogenic suspension culture (derived Peking 18); details: 1 μM DPI in co-culture medium; pre-induced AGL1(pCambia1305.1); 2.5 day at 24° C.; 10 mg/l hygromycin selection; control about 40%
Procedure: Soybean embryogenic suspension culture (derived Peking 18) was co-cultured for 2.5 day at 24° C. with pre-induced AGL1(pCambia1305.1) on nylon membrane, which was placed on top of solid medium (1M with 20 mg/l 2,4-D and B5 vitamins) that was supplemented with 1 μM DPI or 1 mM Na-thiosulfate, 8.8 mM L-cysteine and 1 mM DTT. After selection with 10 mg/l hygromycin, the calli clumps were stained with X-gluc.

[3] = tested on: Somatic embryogenic calli from 4 different cell lines; details: DPI at about 10 μM; AGL2(pCambia1305.1); LMP Bd2 embedding; two months selection; average of four cell lines
Procedure: The co-culture medium JIM2 was supplemented with either 1 μM diphenyl iodonium (DPI), 5 μM DPI or a mixture of antioxidants with a final concentration of 1 mM Na-thiosulfate, 8.8 mM L-cysteine and 1 mM dithiothreitol (DTT). Hygromycin resistant somatic embryos were scored after two months selection. The number of somatic embryos derived from co-culture with DPI-free JIM2 (CK) was set at 100 in each cell line and the relative number of somatic embryos in other co-culture conditions was calculated by dividing the actual number by that of CK.
Somatic embryogenic calli from 4 different cell lines were co-cultured with AGL2(pCambia1305.1) and selection was done by the LMP Bd2 embedding method. The co-culture medium JIM2 was supplemented with either 1 μM DPI, 5 μM DPI or a mixture of antioxidants with a final concentration of 1 mM Na-thiosulfate, 8.8 mM L-cysteine and 1 mM DTT. Hygromycin resistant somatic embryos were scored after two months selection. In transformation using each cell line, the number of somatic embryos derived from co-culture with DPI-free JIM2 (CK) was set at 100 and relative number of somatic embryos in other co-culture conditions was calculated by dividing the actual number by that of CK.

Embryogenic calli = experiment: X-gluc staining of calli immediately after 53 hours co-culture; type: cell-based, Jatropha curcas; details: AS 200 μM, pCambia1305.1 bar
Description: The calli were immediately stained with X-gluc and photographed.
The calli were immediately stained with X-gluc.

**Q.** With `NC[C@H]1O[C@H](O[C@H]2[C@H](O)[C@@H](O[C@H]3O[C@H](CO)[C@@H](O)[C@H](N)[C@H]3O)[C@H](N)C[C@@H]2N)[C@H](O)[C@@H](O)[C@@H]1O` [Kan, kanamycin] as the compound, how does the “Kan selection concentration found OK” value ([1]; Kan 0, 25, 50 and 80 mg/l tested, SE on solid medium) read?
**A.** Its value is 50-80 mg/l OK, heavy.

**Q.** Which “calli clumps showing GUS staining” value [2] does the source give for `c1ccc2c(c1)[I+]c1ccccc1-2` [DPI, diphenylene iodonium] here?
**A.** Its value is “more than 80%”.

**Q.** What about the “Effect of DPI on explants” value ([1]; liquid medium SE) of the same compound?
**A.** The value was “DPI caused no damage on”.

**Q.** And the “Improvement of transformation efficiency (relative number of hygromycin resistant somatic embryos vs DPI-free JIM2)” value [3]?
**A.** The value was “more than 2 folds”.

**Q.** How did the “Effect of AS on transformation efficiency in AGL2” value (Embryogenic calli) turn out when `COc1cc(C(C)=O)cc(OC)c1O` [AS, acetosyringone] was run?
**A.** The value was “further boosted transformation efficiency”.
